Experimental data from patent US12384789B2, “Compounds for treating Huntington's disease” (PTC Therapeutics, Inc., priority 2017, dated 2025).

test system: Endogenous Huntingtin Protein; assay: Endogenous Huntingtin Protein Assay (Meso Scale Discovery ELISA-based electrochemiluminescence); type: cell-based; conditions: MSD electrochemiluminescence, Table 1
Outline: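 MSD electrochemiluminescence sandwich ELISA: MW1 (expanded polyQ) or MAB2166 capture antibody at 1 μg/mL, samples incubated overnight at 4° C. Detection with rabbit monoclonal #5656S then SULFO-TAG anti-rabbit antibody, each 0.25 μg/mL for 1 h at room temperature.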

| SMILES | IC50 [nM] |
| --- | --- |
| Cn1nc2cc(-c3cc4c(F)cc(C5=CCNCC5)cc4nn3)cc(F)c2n1 [Compound 171, 5-fluoro-3-(7-fluoro-2-methyl-2H-benzotriazol-5-yl)-7-(1,2,3,6-tetrahydropyridin-4-yl)cinnoline] | ≤ 100 |
| CCc1cc(-c2cc(F)c3cc(C4CCNCC4)nnc3c2)nc2cn(C)nc12 [Compound 172, 7-(7-ethyl-2-methyl-2H-pyrazolo[4,3-b]pyridin-5-yl)-5-fluoro-3-(piperidin-4-yl)cinnoline] | ≤ 100 |
| CCN1CCC(c2cc3c(F)cc(-c4cc(OC)c5nn(C)cc5n4)cc3nn2)CC1 [Compound 173, 3-(1-ethylpiperidin-4-yl)-5-fluoro-7-(7-methoxy-2-methyl-2H-pyrazolo[4,3-b]pyridin-5-yl)cinnoline] | ≤ 100 |
| CCc1cc(-c2cc(F)c3cc(C4CCN(CC)CC4)nnc3c2)nc2cn(C)nc12 [Compound 174, 7-(7-ethyl-2-methyl-2H-pyrazolo[4,3-b]pyridin-5-yl)-3-(1-ethylpiperidin-4-yl)-5-fluorocinnoline] | ≤ 100 |
| Cn1cc2cc(-c3cc4c(F)cc(C5=CCNCC5)cc4nn3)cc(C#N)c2n1 [Compound 175, 5-[5-fluoro-7-(1,2,3,6-tetrahydropyridin-4-yl)cinnolin-3-yl]-2-methyl-2H-indazole-7-carbonitrile] | ≤ 100 |
| Cc1cn2nc(-c3cc(F)c4cc(C5CCN(C)CC5)nnc4c3)cc(C#N)c2n1 [Compound 176, 6-[5-fluoro-3-(1-methylpiperidin-4-yl)cinnolin-7-yl]-2-methylimidazo[1,2-b]pyridazine-8-carbonitrile] | ≤ 100 |
| Cc1cc(-c2cc3c(F)cc(C4CCNCC4)cc3nn2)cc2cn(C)nc12 [Compound 177, 3-(2,7-dimethyl-2H-indazol-5-yl)-5-fluoro-7-(piperidin-4-yl)cinnoline] | ≤ 100 |
| Cc1cn2nc(-c3cc(F)c4cc(C5CCN(CCO)CC5)nnc4c3)cc(C#N)c2n1 [Compound 178, 6-{5-fluoro-3-[1-(2-hydroxyethyl)piperidin-4-yl]cinnolin-7-yl}-2-methylimidazo[1,2-b]pyridazine-8-carbonitrile] | ≤ 100 |
| Cc1cn2nc(-c3cc(F)c4cc(C5CCN(CCF)CC5)nnc4c3)cc(C#N)c2n1 [Compound 179, 6-{5-fluoro-3-[1-(2-fluoroethyl)piperidin-4-yl]cinnolin-7-yl}-2-methylimidazo[1,2-b]pyridazine-8-carbonitrile] | ≤ 100 |
| Cc1cn2nc(-c3cc(F)c4cc(C5CCN(C)CC5)nnc4c3)cc(CO)c2n1 [Compound 180, {6-[5-fluoro-3-(1-methylpiperidin-4-yl)cinnolin-7-yl]-2-methylimidazo[1,2-b]pyridazin-8-yl}methanol] | ≤ 100 |
| Cc1cn2nc(-c3cc(F)c4cc(C5CCN(CCO)CC5)nnc4c3)cc(CO)c2n1 [Compound 181, 2-(4-{5-fluoro-7-[8-(hydroxymethyl)-2-methylimidazo[1,2-b]pyridazin-6-yl]cinnolin-3-yl}piperidin-1-yl)ethan-1-ol] | ≤ 100 |
| Cc1cn2nc(-c3cc(F)c4cc(C5CCN(CCF)CC5)nnc4c3)cc(CO)c2n1 [Compound 182, (6-{5-fluoro-3-[1-(2-fluoroethyl)piperidin-4-yl]cinnolin-7-yl}-2-methylimidazo[1,2-b]pyridazin-8-yl)methanol] | ≤ 100 |
| CCN1CCC(c2cc(F)c3cc(-c4cc(C)c5nn(C)cc5c4)nnc3c2)CC1 [Compound 183, 3-(2,7-dimethyl-2H-indazol-5-yl)-7-(1-ethylpiperidin-4-yl)-5-fluorocinnoline] | ≤ 100 |
| CCN1CC=C(c2cc(F)c3nc(-c4cc(F)c5nn(C)cc5c4)ccc3c2)CC1 [Compound 184, 6-(1-ethyl-1,2,3,6-tetrahydropyridin-4-yl)-8-fluoro-2-(7-fluoro-2-methyl-2H-indazol-5-yl)quinoline] | ≤ 100 |
| Cc1cn2nc(-c3cc4c(F)cc(C5CCNCC5)cc4nn3)cc(C)c2n1 [Compound 185, 3-(2,8-dimethylimidazo[1,2-b]pyridazin-6-yl)-5-fluoro-7-(piperidin-4-yl)cinnoline] | ≤ 100 |
| CCN1CCC(c2cc(F)c3cc(-c4cc(C)c5nc(C)cn5n4)nnc3c2)CC1 [Compound 186, 3-(2,8-dimethylimidazo[1,2-b]pyridazin-6-yl)-7-(1-ethylpiperidin-4-yl)-5-fluorocinnoline] | ≤ 100 |
| Cc1cn2nc(-c3cc(F)c4cc(C5CCNCC5)nnc4c3)cc(CC#N)c2n1 [Compound 187, {6-[5-fluoro-3-(piperidin-4-yl)cinnolin-7-yl]-2-methylimidazo[1,2-b]pyridazin-8-yl}acetonitrile] | ≤ 100 |
| Cc1cn2nc(-c3cc(F)c4cc(C5CCCN(C)CC5)nnc4c3)cc(C)c2n1 (centres unmarked) [Compound 188, 7-(2,8-dimethylimidazo[1,2-b]pyridazin-6-yl)-5-fluoro-3-(1-methylazepan-4-yl)cinnoline] | ≤ 100 |
| CCN1CCCC(c2cc3c(F)cc(-c4cc(C)c5nc(C)cn5n4)cc3nn2)CC1 (centres unmarked) [Compound 189, 7-(2,8-dimethylimidazo[1,2-b]pyridazin-6-yl)-3-(1-ethylazepan-4-yl)-5-fluorocinnoline] | ≤ 100 |

| SMILES | IC50 [nM] |
| --- | --- |
| Cc1cn2nc(-c3cc(F)c4cc(C5CCCN(CCO)CC5)nnc4c3)cc(C)c2n1 (centres unmarked) [Compound 190, 2-{4-[7-(2,8-dimethylimidazo[1,2-b]pyridazin-6-yl)-5-fluorocinnolin-3-yl]azepan-1-yl}ethan-1-ol] | ≤ 100 |
| Cc1cc2cc(-c3cc(F)c4cc(C5CCNCC5)nnc4c3)[nH]c2c(C)n1 [Compound 191, 7-(5,7-dimethyl-1H-pyrrolo[2,3-c]pyridin-2-yl)-5-fluoro-3-(piperidin-4-yl)cinnoline] | 100 to 500 |
| Cn1cc2cc(-c3ccc4cc(C5CCNCC5)cc(F)c4n3)cc(F)c2n1 [Compound 192, 8-fluoro-2-(7-fluoro-2-methyl-2H-indazol-5-yl)-6-(piperidin-4-yl)quinoline] | ≤ 100 |
| CCN1CCC(c2cc(F)c3nc(-c4cc(F)c5nn(C)cc5c4)ccc3c2)CC1 [Compound 193, 6-(1-ethylpiperidin-4-yl)-8-fluoro-2-(7-fluoro-2-methyl-2H-indazol-5-yl)quinoline] | ≤ 100 |
| Cc1cn2nc(-c3cc(F)c4cc(C5CCNCC5)nnc4c3)cc(-n3ccnc3)c2n1 [Compound 194, 5-fluoro-7-[8-(1H-imidazol-1-yl)-2-methylimidazo[1,2-b]pyridazin-6-yl]-3-(piperidin-4-yl)cinnoline] | 100 to 500 |
| Cc1cn2nc(-c3cc(F)c4cc(C5CCNCC5)nnc4c3)cc(Oc3ccccc3)c2n1 [Compound 195, 5-fluoro-7-(2-methyl-8-phenoxyimidazo[1,2-b]pyridazin-6-yl)-3-(piperidin-4-yl)cinnoline] | ≤ 100 |
| Cc1cc2nc(-c3cc(F)c4cc(C5CCNCC5)nnc4c3)sc2c(C)n1 [Compound 196, 7-(4,6-dimethyl[1,3]thiazolo[5,4-c]pyridin-2-yl)-5-fluoro-3-(piperidin-4-yl)cinnoline] | ≤ 100 |
| CCN1CCC(c2cc3c(F)cc(-c4nc5cc(C)nc(C)c5s4)cc3nn2)CC1 [Compound 197, 7-(4,6-dimethyl[1,3]thiazolo[5,4-c]pyridin-2-yl)-3-(1-ethylpiperidin-4-yl)-5-fluorocinnoline] | ≤ 100 |
| Cc1cc(-c2cc3c(F)cc(C4=CCCNCC4)cc3nn2)cc2cn(C)nc12 [Compound 198, 3-(2,7-dimethyl-2H-indazol-5-yl)-5-fluoro-7-(2,3,6,7-tetrahydro-1H-azepin-4-yl)cinnoline] | 100 to 500 |
| Cc1cn2nc(-c3cc(F)c4cc(C5CCCN(CCF)CC5)nnc4c3)cc(C)c2n1 (centres unmarked) [Compound 199, 7-(2,8-dimethylimidazo[1,2-b]pyridazin-6-yl)-5-fluoro-3-[1-(2-fluoroethyl)azepan-4-yl]cinnoline] | ≤ 100 |
| CCN1CCC(c2cc3c(F)cc(-c4cc(Oc5ccccc5)c5nc(C)cn5n4)cc3nn2)CC1 [Compound 200, 3-(1-ethylpiperidin-4-yl)-5-fluoro-7-(2-methyl-8-phenoxyimidazo[1,2-b]pyridazin-6-yl)cinnoline] | ≤ 100 |
| CCN1CC=C(c2cc(F)c3nc(-c4cc(F)c5nn(C)cc5c4)ncc3c2)CC1 [Compound 201, 6-(1-ethyl-1,2,3,6-tetrahydropyridin-4-yl)-8-fluoro-2-(7-fluoro-2-methyl-2H-indazol-5-yl)quinazoline] | ≤ 100 |
| CCN1CCC(c2cc(F)c3nc(-c4cc(F)c5nn(C)cc5c4)ncc3c2)CC1 [Compound 202, 6-(1-ethylpiperidin-4-yl)-8-fluoro-2-(7-fluoro-2-methyl-2H-indazol-5-yl)quinazoline] | ≤ 100 |
| Cc1cc(-c2cc3c(F)cc([C@@]4(O)CCNC[C@@H]4O)cc3nn2)cc2cn(C)nc12 [Compound 203, (3S,4S)-4-[3-(2,7-dimethyl-2H-indazol-5-yl)-5-fluorocinnolin-7-yl]piperidine-3,4-diol] | 500 to 1000 |
| CCCc1cc(-c2cc(F)c3cc(C4CCNCC4)nnc3c2)nn2cc(C)nc12 [Compound 204, 5-fluoro-7-(2-methyl-8-propylimidazo[1,2-b]pyridazin-6-yl)-3-(piperidin-4-yl)cinnoline] | ≤ 100 |
| CCN1CCC(c2cc3c(F)cc(-c4cc(CC#N)c5nc(C)cn5n4)cc3nn2)CC1 [Compound 205, {6-[3-(1-ethylpiperidin-4-yl)-5-fluorocinnolin-7-yl]-2-methylimidazo[1,2-b]pyridazin-8-yl}acetonitrile] | 100 to 500 |
| CCN1CCC(c2cc3c(F)cc(-c4cc(CCO)c5nc(C)cn5n4)cc3nn2)CC1 [Compound 206] | ≤ 100 |
| Cc1cn2nc(-c3cc(F)c4cc(C5CCNCC5)nnc4c3)cc(CCO)c2n1 [Compound 207, 2-{6-[5-fluoro-3-(piperidin-4-yl)cinnolin-7-yl]-2-methylimidazo[1,2-b]pyridazin-8-yl}ethan-1-ol] | ≤ 100 |
| Cc1cn2nc(-c3cc(F)c4cc(C5=CC(C)(C)NC(C)(C)C5)nnc4c3)cc(C)c2n1 [Compound 208, 7-(2,8-dimethylimidazo[1,2-b]pyridazin-6-yl)-5-fluoro-3-(2,2,6,6-tetramethyl-1,2,3,6-tetrahydropyridin-4-yl)cinnoline] | 100 to 500 |
